{"source": "patent US7081485B2", "about": "“Non-volatile dental compositions containing multifunctional acrylate compounds and lacking an oxygen-inhibited layer” (Bisco, Inc., priority 2002, dated 2006)", "assay": "Initiator absorptivity, 400–500 nm in acetonitrile", "type": "physicochemical", "settings": "normalized by mass", "procedure": "The absorptivity is the absorbance in the range of 400–500 nm in acetonitrile normalized by mass. The higher the value, the higher the absorption in the visible light range. The first three initiators undergo unimolecular bond cleavage upon irradiation. The last three initiators require a co-initiator, such as an amine, to undergo a bimolecular reaction. The initiators (and EDMAB amine if required) were added to the resin. Samples were coated on a white mixing pad, evaporated for greater than 60 seconds, and irradiated at 500 mW/cm^2 using a Bisco VIP light curing system. Samples were irradiated for 5 seconds, 10 seconds, 30 seconds, and 10 seconds in the absence of air. The “no air” cure was performed between two Mylar slips, each 0.25 mm thick. The actual concentration of initiator in the resin was double that shown in the table due to the evaporation of the acetone.", "data": [{"smiles": "CC12CCC(C(=O)C1=O)C2(C)C", "note": "(stereo not drawn) [CQ, camphorquinone]", "values": [{"measurement": "Absorbance × 10^−3", "result": "11 × 10^−3"}]}, {"smiles": "Cc1cc(C)c(C(=O)P(=O)(C(=O)c2c(C)cc(C)cc2C)c2ccccc2)c(C)c1", "note": "[Composition 819, bis(2,4,6-trimethylbenzoyl)-phenylphosphineoxide]", "values": [{"measurement": "Absorbance × 10^−3", "result": "23 × 10^−3"}]}, {"smiles": "CCCCOc1ccc2cc3cc(I)c(=O)c(I)c-3oc2c1", "note": "[HNu, 5,7-diiodo-3-butoxy-6-fluorone]", "values": [{"measurement": "Absorbance × 10^−3", "result": "2960 × 10^−3"}]}, {"smiles": "O=C1C(=O)c2ccccc2-c2ccccc21", "note": "[PAQ, phenanthrenequinone]", "values": [{"measurement": "Absorbance × 10^−3", "result": "466 × 10^−3"}]}, {"smiles": "Cc1cc(C)c(C(=O)P(=O)(c2ccccc2)c2ccccc2)c(C)c1", "note": "[TPO, 2,4,6-trimethylbenzoyl-diphenylphosphinate]", "values": [{"measurement": "Absorbance × 10^−3", "result": "6 × 10^−3"}]}, {"smiles": "CCOP(=O)(C(=O)c1c(C)cc(C)cc1C)c1ccccc1", "note": "(stereo not drawn) [TPOL, ethyl-2,4,6-trimethylbenzoyl-phenylphosphinate]", "values": [{"measurement": "Absorbance × 10^−3", "result": "4 × 10^−3"}]}]}
